Reference: ChEMBL document CHEMBL1201862, “PubChem BioAssay data set” (2004)
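Results reflect a 48-hour exposure of cells in 96-well plates to compound at five concentrations. GI50 is the concentration that inhibits growth by half.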 The source made the active and inactive calls. No stated cut-off is given here; in the data, active = GI50 up to about 1.1 µM and inactive = higher.

Key:
Test in all cases: NCI anticancer screen, dose series, 48 h
A498 = tested on: A498
ACHN = tested on: ACHN
HCC 2998 = tested on: HCC 2998
HCT-15 = tested on: HCT-15
HL-60 = tested on: HL-60
IGROV-1 = tested on: IGROV-1
LOX IMVI = tested on: LOX IMVI
M14 = tested on: M14
MCF7 = tested on: MCF7
MDA-MB-231 = tested on: MDA-MB-231
MOLT-4 = tested on: MOLT-4
OVCAR-4 = tested on: OVCAR-4
OVCAR-5 = tested on: OVCAR-5
RXF 393 = tested on: RXF 393
SF-539 = tested on: SF-539
SK-MEL-2 = tested on: SK-MEL-2
SK-MEL-5 = tested on: SK-MEL-5
U-251 = tested on: U-251
UO-31 = tested on: UO-31
Malme-3M = tested on: Malme-3M

| Structure (SMILES) | GI50 (A498) | GI50 (ACHN) | GI50 (HCC 2998) | GI50 (HCT-15) [µM] | GI50 (HL-60) | GI50 (IGROV-1) | GI50 (LOX IMVI) | GI50 (M14) | GI50 (MCF7) | GI50 (MDA-MB-231) | GI50 (MOLT-4) | GI50 (OVCAR-4) | GI50 (OVCAR-5) | GI50 (RXF 393) | GI50 (SF-539) | GI50 (SK-MEL-2) | GI50 (SK-MEL-5) | GI50 (U-251) | GI50 (UO-31) | GI50 (Malme-3M) |
| --- | --- | --- | --- | --- | --- | --- | --- | --- | --- | --- | --- | --- | --- | --- | --- | --- | --- | --- | --- | --- |
| O=C(O)CN1CCN(CC(=O)O)CCN(CC(=O)O)CCN(CC(=O)O)CC1 [TETRAXETAN] | > 100 µM (inactive) | > 100 µM (inactive) | > 100 µM (inactive) | > 100 | > 100 µM (inactive) | > 100 µM (inactive) | > 100 µM (inactive) | > 100 µM (inactive) | > 100 µM (inactive) | > 100 µM (inactive) | > 100 µM (inactive) | > 100 µM (inactive) | > 100 µM (inactive) | > 100 µM (inactive) | > 100 µM (inactive) | > 100 µM (inactive) | > 100 µM (inactive) | > 100 µM (inactive) | > 100 µM (inactive) | – |
| CC1=CC(=O)CC(C)(C)C1/C=C/C(C)=C/C=C/C(C)=C/C=C/C=C(C)/C=C/C=C(C)/C=C/C1=C(C)CC(O)CC1(C)C (stereo not given) | 94.2 µM (inactive) | 28.6 µM (inactive) | 23.8 µM (inactive) | 24.1 | 18.6 µM (inactive) | 39.1 µM (inactive) | 31.3 µM (inactive) | 33 µM (inactive) | 16.3 µM (inactive) | 64.3 µM (inactive) | 0.0853 µM (active) | 37.9 µM (inactive) | 57.3 µM (inactive) | 20.1 µM (inactive) | 47.2 µM (inactive) | > 100 µM (inactive) | 33 µM (inactive) | 37.8 µM (inactive) | 44.8 µM (inactive) | – |
| [N-]=[N+]=Nc1c([N+](=O)[O-])c(=O)n2c3c(cccc13)CCC2 | 27 µM (inactive) | 17.8 µM (inactive) | 19.1 µM (inactive) | 6.44 | 2.2 µM (inactive) | 20.8 µM (inactive) | 14.4 µM (inactive) | 10.8 µM (inactive) | 11 µM (inactive) | 10.6 µM (inactive) | 2.48 µM (inactive) | 13.7 µM (inactive) | 16.4 µM (inactive) | – | 23.2 µM (inactive) | 16.6 µM (inactive) | 16.7 µM (inactive) | 17.5 µM (inactive) | 15.2 µM (inactive) | 1.62 µM (inactive) |
| O=S1(=O)CCN(Cc2ccccc2)/C1=N\S(=O)(=O)c1ccc(Cl)cc1 | 28.5 µM (inactive) | 18.8 µM (inactive) | 19.3 µM (inactive) | 20.3 | 22.8 µM (inactive) | 17.8 µM (inactive) | 18.1 µM (inactive) | 17.3 µM (inactive) | 22.8 µM (inactive) | > 100 µM (inactive) | 20.5 µM (inactive) | 18.8 µM (inactive) | 18.1 µM (inactive) | 19.5 µM (inactive) | 18.7 µM (inactive) | 23.4 µM (inactive) | 21.2 µM (inactive) | 18 µM (inactive) | 17.5 µM (inactive) | – |
| O=C(Nn1c(-c2ccccc2)nc2ccccc2c1=O)c1ccc(Cl)cc1 | 45.7 µM (inactive) | 94.2 µM (inactive) | > 100 µM (inactive) | > 100 | > 100 µM (inactive) | > 100 µM (inactive) | > 100 µM (inactive) | > 100 µM (inactive) | > 100 µM (inactive) | > 100 µM (inactive) | 59.6 µM (inactive) | 56.5 µM (inactive) | > 100 µM (inactive) | > 100 µM (inactive) | > 100 µM (inactive) | – | 23.4 µM (inactive) | 84.3 µM (inactive) | 65.6 µM (inactive) | > 100 µM (inactive) |
| CSc1c(C(=O)Nc2ccc(Cl)cc2)c(N)nn1-c1ccccc1 | > 35.3 µM (inactive) | 78.7 µM (inactive) | > 100 µM (inactive) | > 100 | > 100 µM (inactive) | > 100 µM (inactive) | > 100 µM (inactive) | > 100 µM (inactive) | > 100 µM (inactive) | 40.8 µM (inactive) | > 100 µM (inactive) | – | > 100 µM (inactive) | 22.7 µM (inactive) | > 100 µM (inactive) | > 100 µM (inactive) | > 100 µM (inactive) | 61.5 µM (inactive) | > 44.8 µM (inactive) | > 100 µM (inactive) |
| NC(=O)C(=CN1CC(=O)NC1=S)C(N)=O | > 100 µM (inactive) | > 100 µM (inactive) | > 100 µM (inactive) | > 100 | > 100 µM (inactive) | > 100 µM (inactive) | > 100 µM (inactive) | > 100 µM (inactive) | > 100 µM (inactive) | > 100 µM (inactive) | > 100 µM (inactive) | > 100 µM (inactive) | > 100 µM (inactive) | > 100 µM (inactive) | > 100 µM (inactive) | > 100 µM (inactive) | > 100 µM (inactive) | > 100 µM (inactive) | > 100 µM (inactive) | – |
| C=CCOC(=O)NC1C(OC(C)[C@@H](NC(=O)OCc2ccccc2)C(=O)OC(C)(C)C)OC(COC(C)=O)C(OC(C)=O)C1OC(C)=O (stereo not given in full) | > 100 µM (inactive) | > 100 µM (inactive) | > 100 µM (inactive) | > 100 | 69.5 µM (inactive) | > 100 µM (inactive) | 86.7 µM (inactive) | 46.1 µM (inactive) | > 100 µM (inactive) | 15.1 µM (inactive) | 25.8 µM (inactive) | > 100 µM (inactive) | > 100 µM (inactive) | > 100 µM (inactive) | > 100 µM (inactive) | – | > 100 µM (inactive) | > 100 µM (inactive) | 17.2 µM (inactive) | > 100 µM (inactive) |
| CC1CN(CCO)CC(C)O1 (stereo not given) | > 100 µM (inactive) | > 100 µM (inactive) | > 100 µM (inactive) | > 100 | > 100 µM (inactive) | > 100 µM (inactive) | – | > 100 µM (inactive) | > 100 µM (inactive) | > 100 µM (inactive) | > 100 µM (inactive) | > 100 µM (inactive) | > 100 µM (inactive) | > 100 µM (inactive) | > 100 µM (inactive) | > 100 µM (inactive) | > 100 µM (inactive) | > 100 µM (inactive) | > 100 µM (inactive) | > 100 µM (inactive) |
| COC(=O)C(=O)C(C(=O)C(=O)Nc1ccccc1C(N)=O)c1nc2ccc(Cl)cc2nc1O (stereo not given) | > 100 µM (inactive) | > 100 µM (inactive) | > 100 µM (inactive) | > 100 | > 100 µM (inactive) | – | > 100 µM (inactive) | > 100 µM (inactive) | > 100 µM (inactive) | > 100 µM (inactive) | > 100 µM (inactive) | > 100 µM (inactive) | > 100 µM (inactive) | > 100 µM (inactive) | > 100 µM (inactive) | > 100 µM (inactive) | > 100 µM (inactive) | > 100 µM (inactive) | > 100 µM (inactive) | – |
| COc1c(O)c2c(c3cc(C(=O)N4CCc5c4c(O)c(OC)c4[nH]c(C(=O)N6CC7CC78C6=CC(=O)c6[nH]cc(C)c68)cc54)[nH]c13)CCN2C(N)=O (stereo not given) [CC-1065] | 0.0028 µM (active) | 0.00298 µM (active) | 0.114 µM (active) | 0.0149 | 0.00783 µM (active) | – | 0.000895 µM (active) | 0.0016 µM (active) | 0.0577 µM (active) | 0.486 µM (active) | 0.0164 µM (active) | – | – | 0.188 µM (active) | 0.00366 µM (active) | – | 0.0126 µM (active) | 0.000191 µM (active) | 0.00834 µM (active) | 0.00209 µM (active) |
| COc1cccc2c1OC1(C=C2)Oc2ccccc2C(=O)N1C (stereo not given) | 19.6 µM (inactive) | 35.2 µM (inactive) | 26.7 µM (inactive) | 32.5 | 19.3 µM (inactive) | 27.7 µM (inactive) | 2.05 µM (inactive) | 40.8 µM (inactive) | 37.8 µM (inactive) | 27.2 µM (inactive) | 15.7 µM (inactive) | 45.3 µM (inactive) | 78.3 µM (inactive) | 25.5 µM (inactive) | – | 54.5 µM (inactive) | 68.1 µM (inactive) | 39.8 µM (inactive) | 19.8 µM (inactive) | – |
| C/C(=C1/N=C(c2ccccc2)OC1=O)c1cccs1 | > 100 µM (inactive) | > 100 µM (inactive) | > 100 µM (inactive) | > 100 | > 100 µM (inactive) | 63.7 µM (inactive) | > 100 µM (inactive) | > 100 µM (inactive) | > 100 µM (inactive) | 66.7 µM (inactive) | > 100 µM (inactive) | 37.3 µM (inactive) | > 100 µM (inactive) | > 100 µM (inactive) | > 100 µM (inactive) | > 100 µM (inactive) | > 100 µM (inactive) | > 100 µM (inactive) | – | > 100 µM (inactive) |
| Nn1c(-c2ccccc2)n[nH]c1=O | > 100 µM (inactive) | > 100 µM (inactive) | > 100 µM (inactive) | > 100 | > 100 µM (inactive) | > 100 µM (inactive) | > 100 µM (inactive) | > 100 µM (inactive) | > 100 µM (inactive) | > 100 µM (inactive) | > 100 µM (inactive) | > 100 µM (inactive) | > 100 µM (inactive) | – | > 100 µM (inactive) | > 100 µM (inactive) | > 100 µM (inactive) | > 100 µM (inactive) | > 100 µM (inactive) | 80.2 µM (inactive) |
| CC(C)/C(Cl)=N\OC(=O)NNc1ccccc1 | 75.2 µM (inactive) | 14.1 µM (inactive) | 44.9 µM (inactive) | 21.1 | – | 1.8 µM (inactive) | 12.6 µM (inactive) | 3.47 µM (inactive) | 8.93 µM (inactive) | 41.9 µM (inactive) | < 0.01 µM (active) | 7.48 µM (inactive) | > 100 µM (inactive) | > 100 µM (inactive) | 29.3 µM (inactive) | > 32.1 µM (inactive) | 0.0966 µM (active) | 37.6 µM (inactive) | 0.0178 µM (active) | 15.8 µM (inactive) |
